In patent publication US10428082B2, “Triazole derivatives of melampomagnolide B and methods of use thereof” (BioVentures, LLC, priority 2016, dated 2019):

Assays:
Assay in all cases: NCI 60 growth inhibition
Assay type in all cases: cell-based, human
[1] = test system: HCT-15; details: HCT-15, Colon Cancer, Table 2
[2] = test system: MDA-MB-468; details: MDA-MB-468, Breast Cancer, Table 2
[3] = test system: SK-MEL-5; details: SK-MEL-5, Melanoma, Table 2
[4] = test system: NCI-H226; details: NCI-H226, Non-Small Cell Lung Cancer, Table 2
[5] = test system: U251; details: U251, CNS Cancer, Table 2
[6] = test system: LOX IMVI; details: Melanoma, Table 2
[7] = test system: MOLT-4; details: MOLT-4, Leukemia, Table 2
[8] = test system: COLO 205; details: COLO 205, Colon Cancer, Table 2
[9] = test system: UACC-62; details: UACC-62, Melanoma, Table 2
[10] = test system: NCI-H460; details: NCI-H460, Non-Small Cell Lung Cancer, Table 2
[11] = test system: DU-145; details: DU-145, Prostate Cancer, Table 2
[12] = test system: NCI-H522; details: NCI-H522, Non-Small Cell Lung Cancer, Table 2
[13] = test system: RPMI-8226; details: RPMI-8226, Leukemia, Table 2
[14] = test system: OVCAR-8; details: OVCAR-8, Ovarian Cancer, Table 2
[15] = test system: HOP-62; details: HOP-62, Non-Small Cell Lung Cancer, Table 2
[16] = test system: M14; details: M14, Melanoma, Table 2
[17] = test system: TK-10; details: TK-10, Renal Cancer, Table 2
[18] = test system: OVCAR-5; details: OVCAR-5, Ovarian Cancer, Table 2
[19] = test system: SF-539; details: SF-539, CNS Cancer, Table 2
[20] = test system: UO-31; details: UO-31, Renal Cancer, Table 2
[21] = test system: SK-MEL-2; details: SK-MEL-2, Melanoma, Table 2
[22] = test system: MALME-3M; details: Melanoma, Table 2
[23] = test system: OVCAR-4; details: OVCAR-4, Ovarian Cancer, Table 2
[24] = test system: ACHN; details: Renal Cancer, Table 2
[25] = test system: CCRF-CEM; details: Leukemia, Table 2
[26] = test system: NCI-H23; details: NCI-H23, Non-Small Cell Lung Cancer, Table 2
[27] = test system: 786-0; details: 786-0, Renal Cancer, Table 2
[28] = test system: NCI/ADR-RES; details: Ovarian Cancer, Table 2
[29] = test system: EKVX; details: Non-Small Cell Lung Cancer, Table 2
[30] = test system: NCI-H322M; details: Non-Small Cell Lung Cancer, Table 2
[31] = test system: HCC-2998; details: HCC-2998, Colon Cancer, Table 2
[32] = test system: UACC-257; details: UACC-257, Melanoma, Table 2
[33] = test system: A549/ATCC; details: Non-Small Cell Lung Cancer, Table 2
[34] = test system: HS 578T; details: Breast Cancer, Table 2
[35] = test system: SW-620; details: SW-620, Colon Cancer, Table 2
[36] = test system: SF-295; details: SF-295, CNS Cancer, Table 2
[37] = test system: MDA-MB-435; details: MDA-MB-435, Melanoma, Table 2
[38] = test system: SF-268; details: SF-268, CNS Cancer, Table 2
[39] = test system: PC-3; details: PC-3, Prostate Cancer, Table 2
[40] = test system: MCF7; details: MCF7, Breast Cancer, Table 2

C=C1C(=O)O[C@H]2[C@H]1CC/C(Cn1cc(-c3ccc(F)cc3)nn1)=C\CC[C@@]1(C)O[C@@H]21 [JVM 4-26]
GI50 ([1]; Homo sapiens): 280 nM | GI50 ([2]; Homo sapiens): 420 nM | GI50 ([3]; Homo sapiens): 1740 nM | GI50 ([4]; Homo sapiens): 2480 nM | GI50 ([5]; Homo sapiens, U-251): 2020 nM | GI50 ([6]; Homo sapiens): 900 nM | GI50 ([7]; Homo sapiens): 380 nM | GI50 ([8]; Homo sapiens): 450 nM | GI50 ([9]; Homo sapiens): 1260 nM | GI50 ([10]; Homo sapiens): 3660 nM | GI50 ([11]; Homo sapiens): 690 nM | GI50 ([12]; Homo sapiens): 250 nM | GI50 ([13]; Homo sapiens): 1410 nM | GI50 ([14]; Homo sapiens): 1660 nM | GI50 ([15]; Homo sapiens): 3040 nM | GI50 ([16]; Homo sapiens): 940 nM | GI50 ([17]; Homo sapiens): 1240 nM | GI50 ([18]; Homo sapiens): 1470 nM | GI50 ([19]; Homo sapiens): 270 nM | GI50 ([20]; Homo sapiens): 1220 nM | GI50 ([21]; Homo sapiens): 1830 nM | GI50 ([22]; Homo sapiens): 1400 nM | GI50 ([23]; Homo sapiens): 1290 nM | GI50 ([24]; Homo sapiens): 180 nM | GI50 ([25]; Homo sapiens): 240 nM | GI50 ([26]; Homo sapiens): 1780 nM | GI50 ([27]; Homo sapiens): 1060 nM | GI50 ([28]; Homo sapiens): 3050 nM | GI50 ([29]; Homo sapiens): 1490 nM | GI50 ([30]; Homo sapiens): 4390 nM | GI50 ([31]; Homo sapiens): 1740 nM | GI50 ([32]; Homo sapiens): 1470 nM | GI50 ([33]; Homo sapiens): 3370 nM | GI50 ([34]; Homo sapiens): 3680 nM | GI50 ([35]; Homo sapiens): 420 nM | GI50 ([36]; Homo sapiens): 5730 nM | GI50 ([37]; Homo sapiens): 1000 nM | GI50 ([38]; Homo sapiens): 1690 nM | GI50 ([39]; Homo sapiens): 2000 nM | GI50 ([40]; Homo sapiens): 350 nM

C=C1C(=O)O[C@H]2[C@H]1CC/C(Cn1cc(-c3cc(C)c(C)cc3C)nn1)=C\CC[C@@]1(C)O[C@@H]21 [JVM 4-50]
GI50 [1]: 200 nM | GI50 [2]: 530 nM | GI50 [3]: 1660 nM | GI50 [4]: 1460 nM | GI50 [5]: 1530 nM | GI50 [6]: 720 nM | GI50 [7]: 2380 nM | GI50 [8]: 640 nM | GI50 [9]: 1130 nM | GI50 [10]: 3160 nM | GI50 [11]: 1350 nM | GI50 [12]: 280 nM | GI50 [13]: 1180 nM | GI50 [14]: 920 nM | GI50 [15]: 1770 nM | GI50 [16]: 1500 nM | GI50 [17]: 1460 nM | GI50 [18]: 1740 nM | GI50 [19]: 1160 nM | GI50 [20]: 520 nM | GI50 [21]: 1750 nM | GI50 [22]: 1430 nM | GI50 [23]: 700 nM | GI50 [24]: 1070 nM | GI50 [25]: 450 nM | GI50 [26]: 1770 nM | GI50 [27]: 1500 nM | GI50 [28]: 2510 nM | GI50 [29]: 1220 nM | GI50 [30]: 11100 nM | GI50 [31]: 1720 nM | GI50 [32]: 1290 nM | GI50 [33]: 1730 nM | GI50 [34]: 1940 nM | GI50 [35]: 420 nM | GI50 [36]: 6440 nM | GI50 [37]: 1410 nM | GI50 [38]: 1520 nM | GI50 [39]: 1470 nM | GI50 [40]: 430 nM
